Laboratory results published in BindingDB's records for doi:10.1007/BF00173012 (Sandoz Pharma, 1994).
Where a SMILES comes first, the peptide text is derived from it. [ ]: non-standard residue; d: D form. d2Nal = N[C@H](Cc1ccc2ccccc2c1)C(=O)O

Assays:
[1] = biological target: Somatostatin receptor type 2 (Mus musculus, UniProt P30875)
[2] = biological target: Somatostatin receptor type 3 (Mus musculus, UniProt P30935)
[3] = biological target: Somatostatin receptor type 4 (Mus musculus, UniProt P49660)
[4] = biological target: Somatostatin receptor type 1 (Homo sapiens, UniProt P30872)
[5] = biological target: T1, Somatostatin receptor type 5 (Rattus norvegicus, UniProt P30938)
T1 sequence (P30938 whole entry): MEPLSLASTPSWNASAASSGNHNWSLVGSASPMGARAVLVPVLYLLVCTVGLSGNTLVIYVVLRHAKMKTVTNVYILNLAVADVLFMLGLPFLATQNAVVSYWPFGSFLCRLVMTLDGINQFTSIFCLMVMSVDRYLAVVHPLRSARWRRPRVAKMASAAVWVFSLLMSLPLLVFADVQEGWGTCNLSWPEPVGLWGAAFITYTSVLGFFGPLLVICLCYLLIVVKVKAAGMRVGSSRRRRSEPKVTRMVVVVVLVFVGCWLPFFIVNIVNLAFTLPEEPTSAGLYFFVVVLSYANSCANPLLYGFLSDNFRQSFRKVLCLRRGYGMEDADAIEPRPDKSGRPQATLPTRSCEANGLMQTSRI

Sequence of Somatostatin receptor type 1 (P30872 whole entry): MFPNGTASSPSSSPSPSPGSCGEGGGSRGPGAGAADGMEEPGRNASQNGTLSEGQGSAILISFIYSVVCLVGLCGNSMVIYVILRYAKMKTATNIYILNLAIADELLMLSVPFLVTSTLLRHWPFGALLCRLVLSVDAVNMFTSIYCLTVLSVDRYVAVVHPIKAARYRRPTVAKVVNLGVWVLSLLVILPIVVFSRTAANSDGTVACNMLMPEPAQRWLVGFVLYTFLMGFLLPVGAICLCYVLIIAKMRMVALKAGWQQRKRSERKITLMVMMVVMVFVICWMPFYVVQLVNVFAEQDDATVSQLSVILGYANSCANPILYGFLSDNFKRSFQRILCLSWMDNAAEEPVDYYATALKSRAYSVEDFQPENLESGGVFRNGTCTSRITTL
Sequence of Somatostatin receptor type 4 (P49660 whole entry): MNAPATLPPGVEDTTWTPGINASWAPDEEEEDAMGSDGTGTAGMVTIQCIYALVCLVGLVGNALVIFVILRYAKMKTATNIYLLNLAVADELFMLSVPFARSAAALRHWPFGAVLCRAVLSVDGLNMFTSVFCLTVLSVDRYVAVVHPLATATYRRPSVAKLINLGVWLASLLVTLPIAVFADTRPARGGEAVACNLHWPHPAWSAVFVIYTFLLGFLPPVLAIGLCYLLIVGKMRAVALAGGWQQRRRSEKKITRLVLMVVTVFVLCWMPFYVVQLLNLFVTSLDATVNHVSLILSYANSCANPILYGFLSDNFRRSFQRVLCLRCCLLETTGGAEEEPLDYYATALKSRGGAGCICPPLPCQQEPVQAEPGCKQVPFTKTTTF
Sequence of Somatostatin receptor type 3 (P30935 whole entry): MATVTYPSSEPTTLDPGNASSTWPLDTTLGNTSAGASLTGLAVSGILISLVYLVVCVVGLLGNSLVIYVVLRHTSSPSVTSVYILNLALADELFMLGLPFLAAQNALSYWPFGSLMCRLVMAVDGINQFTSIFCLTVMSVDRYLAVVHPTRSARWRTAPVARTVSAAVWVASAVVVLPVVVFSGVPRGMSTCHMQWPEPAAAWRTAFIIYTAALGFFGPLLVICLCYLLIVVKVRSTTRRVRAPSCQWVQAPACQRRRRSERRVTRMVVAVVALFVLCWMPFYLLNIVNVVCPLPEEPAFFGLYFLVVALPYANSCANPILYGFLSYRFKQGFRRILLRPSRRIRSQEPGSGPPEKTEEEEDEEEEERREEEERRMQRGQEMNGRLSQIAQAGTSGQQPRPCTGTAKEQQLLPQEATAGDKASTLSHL
Sequence of Somatostatin receptor type 2 (P30875 whole entry): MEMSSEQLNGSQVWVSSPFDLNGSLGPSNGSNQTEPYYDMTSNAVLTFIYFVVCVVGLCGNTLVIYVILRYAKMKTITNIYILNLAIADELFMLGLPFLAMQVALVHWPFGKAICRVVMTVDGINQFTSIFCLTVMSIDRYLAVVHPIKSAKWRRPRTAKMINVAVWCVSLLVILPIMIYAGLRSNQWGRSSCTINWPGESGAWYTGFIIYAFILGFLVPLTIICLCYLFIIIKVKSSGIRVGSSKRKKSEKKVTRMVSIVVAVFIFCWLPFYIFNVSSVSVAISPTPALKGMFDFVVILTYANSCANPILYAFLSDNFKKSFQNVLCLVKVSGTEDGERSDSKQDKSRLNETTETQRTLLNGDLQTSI

| SMILES | Ki [1] | Ki [2] | Ki [3] | Ki [4] | Ki [5] |
| --- | --- | --- | --- | --- | --- |
| CC(C)[C@H](NC(=O)[C@H](CCCCN)NC(=O)[C@@H](Cc1c[nH]c2ccccc12)NC(=O)[C@H](Cc1ccc(O)cc1)NC(=O)[C@H](Cc1ccccc1)NC(=O)[C@H](N)Cc1ccccc1)C(=O)N[C@@H](Cc1ccccc1)C(=O)N[C@H](Cc1ccc2ccccc2c1)C(N)=O [CAS_150155-61-6] (H-[dF]FY[dW]KVF[d2Nal]-NH2) | > 10000 nM | 0.01 nM | 158 nM | 1000 nM | 42.6 nM |
| C[C@@H](O)[C@@H]1NC(=O)[C@H](Cc2ccc(O)cc2)NC(=O)[C@H]([C@@H](C)O)NC(=O)[C@H](CCCCN)NC(=O)[C@H](Cc2c[nH]c3ccccc23)NC(=O)[C@H](Cc2ccccc2)NC(=O)[C@H](Cc2ccccc2)NC(=O)[C@H](CC(N)=O)NC(=O)[C@H](CCCCN)NC(=O)CCCCC[C@@H](C(=O)O)NC(=O)[C@H](CO)NC1=O [CGP-23996] | 1 nM | 0.6 nM | 1.41 nM | 100 nM | – |
